Assays:
[1] = tested on: rabbit model of pleurodesis; test: Direct daily dosing at low levels, rabbit model of pleurodesis; assay type: in vivo; details: for average pleurodesis score: score out of 8
Method: These experiments were carried out in order to determine if low doses of sclerosing agents could result in successful pleurodesis when administered in a repeated fashion. Using daily doses of silver nitrate or doxycycline in decreasing doses starting at the lower limit of what has previously been reported to be effective, further decreases in dosing were administered utilizing single day, 5 day or 14 day regimens. Theoretically utilizing lower doses on a repeated basis may reduce the frequency and/or severity of side effects.
All experiments were carried out in a rabbit model of pleurodesis which has been extensively utilized in the field of pleurodesis in many centers around the world. As explained in further detail below, standard pleurodesis is score graded one to 8 and is used for assessment of the efficacy of pleurodesis, the number one representing a normal pleural space while 8 represents complete pleural symphysis. A score of 5 or higher is usually considered consistent with a successful pleurodesis.
A total of 18 animals were treated with doxycycline at doses of 1 mg/kg, 5 mg/kg, or 10 mg/kg. Animals (n=2) in the 10 mg/kg group received only the single day injection, animals (n=2/group) in the 5 mg/kg range received either 1 day, 5 days or 14 days injection, and animals in the lowest dose range of 1 mg/kg (n=2/group) received repeated injections over 5 days or 14 days. The results were compared with the placebo groups (n=2/group) which were given saline injections over either 1, 5 or 14 days. All doses were administered after a daily drainage. At the end of the treatment period, the animals were euthanized and pleurodesis was scored according to the standard scoring system shown in FIG. 5.
A total of 20 animals were treated with silver nitrate at dosing concentrations of 0.05%, 0.085%, 0.425% and 0.85%. Note that reported effective single dose injections of silver nitrate in this model range from 0.3% to 0.5%. A concentration of 0.25% was reported to be ineffective in one publication, but overall data is limited. The groups were assigned a treatment period of either a 1 day, 5 days or 14 days of repeated injections. A minimum of 2 animals were used for each of the 10 groups, and a further 2 animals were tested at the lowest dose range (0.05%). The results were compared with the placebo groups which were given saline injections over either 1, 5 or 14 days (n=2/group). All doses were administered after a daily drainage. At the end of the treatment period, the animals were euthanized and pleurodesis was scored according to the standard scoring table (shown in FIG. 5). Degree of pleural inflammation and fibrosis was also evaluated.

[2] = tested on: patients; details: cited from earlier work; for pain after intrapleural administration: literature reports
[3] = tested on: animal model; details: cited from earlier work
[4] = tested on: rabbit model of pleurodesis; details: concentration of 0.25%; cited from earlier work

For `C[C@H]1c2cccc(O)c2C(=O)C2=C(O)[C@]3(O)C(=O)C(C(N)=O)=C(O)[C@@H](N(C)C)[C@@H]3[C@@H](O)[C@@H]21` [doxycycline], the pleurodesis score ([1]; 5 mg/kg over 14 days, score 1-8) is listed as 5, the mean pleurodesis score ([1]; 10 mg/kg single dose, score 1-8) is listed as 4.5 and the “pain after intrapleural administration” value [2] is listed as “significant”.

For `CN(C)c1ccc(O)c2c1C[C@H]1C[C@H]3[C@H](N(C)C)C(O)=C(C(N)=O)C(=O)[C@@]3(O)C(O)=C1C2=O` [minocycline], the mortality ([3]; higher doses, intrapleural (Light et al., 1994)) is listed as “excess mortality”.

For `O=[N+]([O-])[O-].[Ag+]` [silver nitrate], the average pleurodesis score ([1]; 0.05% 14 days of repeated injections) was 6.5, the pleurodesis scores ([1]; 0.050% administered for 14 days) was “greater than or equal to 5” and the pleurodesis scores ([1]; 0.085% administered for 5 days) was “successful pleurodesis scores”. For the same compound, the average pleurodesis score ([1]; 0.085% repeated daily over 5 days) was 7.5, the pleurodesis outcome ([1]; 0.085% single dose) was “ineffective in achieving pleurodesis” and the average pleurodesis score ([1]; 0.425% single day injection) was 8. For the same compound, the average pleurodesis score ([1]; 0.85% single day injection) was 8, the “pleurodesis outcome (one publication)” value [4] was “ineffective” and the “systemic response (white blood cell count elevation, neutrophilia, serum interleukin-8 and VEGF levels)” value ([3]; concentration of 0.1% vs 0.5% dose (Marchi et al., 2005)) was “less systemic response”. The “tolerability in human trial” value ([2]; 0.5% concentration (Paschoalini et al., 2005)) was “well tolerated”, the clinical side effects ([2]; concentrations of up 10% (Wied et al.)) was “severe pain and side effects” and the “pain after intrapleural administration” value [2] was “significant”.

For `CN(C)[C@@H]1C(O)=C(C(N)=O)C(=O)[C@@]2(O)C(O)=C3C(=O)c4c(O)cccc4[C@@](C)(O)[C@H]3C[C@@H]12` [tetracycline], the “pain after intrapleural administration” value [2] is listed as “Intense pain”.

From patent US8529542B2, “Method and system for sustained-release of sclerosing agent” (UTI Limited Partnership, priority 2007, dated 2013)
